According to patent publication US20260200920A1, “SUBSTITUTED AMINOPYRIDINE COMPOUNDS FOR USE AS AKT1 INHIBITORS” (Atavistik Bio, Inc., priority 2023, published 2026):

Columns and labels:
[1] = target: T1, human recombinant kinase full-length AKT1 E17K (Homo sapiens, UniProt P31749, E17K); assay: AKT1 E17K kinase assay (TR-FRET, Lance); assay type: biochemical; settings: 0.6 nM AKT1 E17K, 50 nM Ulight-CREBtide, either 50 μM ATP or 2 mM ATP, 60 min at RT
T1 construct: Purified human recombinant kinase full-length AKT1 E17K was expressed in insect cells; made in house; host or cells: insect cells
T1 sequence (P31749 whole entry E17K): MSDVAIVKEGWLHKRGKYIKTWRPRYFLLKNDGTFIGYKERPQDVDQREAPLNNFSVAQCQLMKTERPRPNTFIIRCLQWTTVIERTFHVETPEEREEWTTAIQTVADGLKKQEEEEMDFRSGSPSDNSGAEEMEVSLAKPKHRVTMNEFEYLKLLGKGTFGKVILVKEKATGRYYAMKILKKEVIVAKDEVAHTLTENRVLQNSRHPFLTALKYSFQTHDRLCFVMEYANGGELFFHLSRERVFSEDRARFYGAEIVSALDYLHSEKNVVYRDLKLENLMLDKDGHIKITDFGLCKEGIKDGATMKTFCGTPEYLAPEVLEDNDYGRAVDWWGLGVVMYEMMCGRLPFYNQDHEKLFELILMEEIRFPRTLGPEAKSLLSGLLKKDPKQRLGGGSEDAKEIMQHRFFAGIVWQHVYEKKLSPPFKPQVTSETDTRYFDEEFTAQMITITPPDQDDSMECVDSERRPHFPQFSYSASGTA
Summary of the method: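 IC50 came from a 10-point, 4-parameter fit of the 665/620 TR-FRET ratio read with Eu-anti-phospho-CREB (Ser133). Reaction at RT for 60 min after 15 min compound preincubation, using 0.6 nM PDPK1-activated full-length AKT1 E17K (insect-cell), 50 nM Ulight-CREBtide, ATP at 50 μM or 2 mM, HEPES pH 7.5, 1% DMSO.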

[2] = target: T2, human recombinant kinase full-length wildtype AKT1 (Homo sapiens, UniProt P31749); assay: AKT1 kinase assay (wildtype, TR-FRET, Lance); assay type: biochemical; settings: 0.6 nM wildtype AKT1, 50 nM Ulight-CREBtide, either 50 μM ATP or 2 mM ATP, 60 min at RT
T2 construct: Purified human recombinant kinase full-length wildtype AKT1 was expressed in insect cells; made in house; host or cells: insect cells
T2 sequence (P31749 whole entry): as the sequence (P31749 whole entry E17K) above, with K17E counted along it
Summary of the method: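 TR-FRET 665/620 ratio quantified phospho-CREBtide formed by PDPK1-activated full-length human AKT1 (0.6 nM, insect-cell-derived) over 60 min at RT with 50 nM ULight-CREBtide and either 50 μM or 2 mM ATP. Compounds were preincubated 15 min with enzyme; IC50 came from 4-parameter fits of 10-point duplicates.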

SMILES	IC50 [1] [nM]	IC50 [2] [nM]
Nc1ncccc1-c1nc2ccc(-c3ccccc3F)nc2n1-c1ccc(C2CN(CC34CCC(C(=O)O)(CC3)CC4)C2)cc1 [Compound I-203]	< 500	< 20000
Cc1cc(C2CN(CC3CC4(C3)CC(C(=O)O)C4)C2)ccc1-n1c(-c2cccnc2N)nc2ccc(-c3ccccc3)nc21 (stereo not drawn) [Compound I-204]	< 500	< 20000
Cc1cc(C2CN(C[C@H]3CC[C@@H](C(=O)O)CC3)C2)ccc1-n1c(-c2cccnc2N)nc2ccc(-c3ccccc3)nc21 [Compound I-205]	500 to 2000	< 20000
Cc1cc(C2CN(CC34CCC(C(=O)O)(CC3)CC4)C2)ccc1-n1c(-c2cccnc2N)nc2ccc(-c3ccccc3)nc21 [Compound I-206]	500 to 2000	< 20000
Cc1cc(C2CN(CC3CC4CC(C(=O)O)CC4C3)C2)ccc1-n1c(-c2cccnc2N)nc2ccc(-c3ccccc3)nc21 (stereo not drawn) [Compound I-207]	500 to 2000	< 20000
Nc1ncccc1-c1nc2ccc(-c3ccccc3)nc2n1-c1c(F)cc(C2CN(C[C@H]3CC[C@H](C(=O)O)CC3)C2)cc1F [Compound I-208]	500 to 2000	< 20000
Cc1cc(C2CN(C[C@H]3CC[C@H](C(=O)O)CC3)C2)ccc1-n1c(-c2cccnc2N)nc2ccc(-c3ccccc3F)nc21 [Compound I-209]	500 to 2000	< 20000
Cc1cc(C2CN(C[C@H]3CC[C@@H](C(=O)O)CC3)C2)ccc1-n1c(-c2cccnc2N)nc2ccc(-c3ccccc3F)nc21 [Compound I-210]	500 to 2000	< 20000
Cc1ccccc1-c1ccc2nc(-c3cccnc3N)n(-c3ccc(C4CN(C[C@H]5CC[C@H](C(=O)O)CC5)C4)cc3C)c2n1 [Compound I-211]	≥ 2000	< 20000
Cc1ccccc1-c1ccc2nc(-c3cccnc3N)n(-c3ccc(C4CN(C[C@H]5CC[C@H](C(=O)O)CC5)C4)cc3)c2n1 [Compound I-212]	500 to 2000	< 20000
Nc1ncccc1-c1nc2ccc(-c3ccccc3F)nc2n1-c1ccc(C2CN(C[C@H]3CC[C@H](C(=O)O)CC3)C2)cc1 [Compound I-213]	< 500	< 20000
Cc1nc(NC(=O)[C@H]2CC[C@H](C(=O)O)CC2)ccc1-n1c(-c2cccnc2N)nc2ccc(-c3cccc(F)c3)nc21 [Compound I-214]	< 500	< 20000
Cc1nc(NC(=O)[C@H]2CC[C@H](C(=O)O)CC2)ccc1-n1c(-c2cccnc2N)nc2ccc(-c3ccc(F)cc3)nc21 [Compound I-215]	500 to 2000	< 20000
Cc1nc(NC(=O)[C@H]2CC[C@H](C(=O)O)CC2)ccc1-n1c(-c2cccnc2N)nc2ccc(-c3ccc(F)cc3F)nc21 [Compound I-216]	≥ 2000	< 20000
Cc1nc(NC(=O)[C@H]2CC[C@H](C(=O)O)CC2)ccc1-n1c(-c2cccnc2N)nc2ccc(-c3c(F)cccc3F)nc21 [Compound I-217]	500 to 2000	< 20000
Cc1nc(NC(=O)[C@H]2CC[C@H](C(=O)O)CC2)ccc1-n1c(-c2cccnc2N)nc2ccc(-c3ccccc3F)nc21 [Compound I-218]	500 to 2000	< 20000
Cc1nc(NC(=O)[C@H]2CC[C@H](C(=O)O)CC2)ccc1-n1c(-c2cccnc2N)nc2ccc(-c3cccc(F)c3F)nc21 [Compound I-219]	500 to 2000	< 20000
COc1ccccc1-c1ccc2nc(-c3cccnc3N)n(-c3ccc(NC(=O)[C@H]4CC[C@H](C(=O)O)CC4)nc3C)c2n1 [Compound I-220]	500 to 2000	< 20000
Nc1ncccc1-c1nc2ccc(-c3ccccc3)cc2n1-c1ccc(C2CN(C[C@H]3CC[C@H](C(=O)O)CC3)C2)cc1 [Compound I-221, (1r,4r)-4-((3-(4-(2-(2-aminopyridin-3-yl)-6-phenyl-1H-benzo[d]imidazol-1-yl)phenyl)azetidin-1-yl)methyl)cyclohexane-1-carboxylic acid]	500 to 2000	< 20000
Cc1cc(C2CN(C[C@H]3CC[C@@H](C(=O)O)CC3)C2)ccc1-n1c(-c2cccnc2N)nc2ccc(-c3ccccc3)cc21 [Compound I-222]	500 to 2000	< 20000
Cc1cc(C2CN(C[C@H]3CC[C@H](C(=O)O)CC3)C2)ccc1-n1c(-c2cccnc2N)nc2ccc(-c3ccccc3)cc21 [Compound I-223]	≥ 2000	< 20000
Cc1cc(C2CN(CC3CC4(C3)CC(C(=O)O)C4)C2)ccc1-n1c(-c2cccnc2N)nc2ccc(-c3ccccc3)cc21 (stereo not drawn) [Compound I-224]	≥ 2000	< 20000
Cc1nc(NCC2CC3(C2)CC(C(=O)O)C3)ccc1-n1c(-c2cccnc2N)nc2ccc(-c3ccccc3)nc21 (stereo not drawn) [Compound I-225]	< 500	< 20000
Cc1nc(NC[C@@H]2CC[C@H](C(=O)O)C2)ccc1-n1c(-c2cccnc2N)nc2ccc(-c3ccccc3)nc21 [Compound I-226]	500 to 2000	< 20000
Cc1nc(NC[C@@H]2CC[C@@H](C(=O)O)C2)ccc1-n1c(-c2cccnc2N)nc2ccc(-c3ccccc3)nc21 [Compound I-227]	500 to 2000	< 20000
Cc1cc2nc(-c3cccnc3N)n(-c3ccc(C4CN(C[C@H]5CC[C@@H](C(=O)O)CC5)C4)cc3)c2nc1-c1ccccc1 [Compound I-234, Cis-4-((3-(4-(2-(2-aminopyridin-3-yl)-6-methyl-5-phenyl-3H-imidazo[4,5-b]pyridin-3-yl)phenyl)azetidin-1-yl)methyl)cyclohexane-1-carboxylic acid]	< 500	< 20000
Cc1cc2nc(-c3cccnc3N)n(-c3ccc(C4CN(C[C@H]5CC[C@H](C(=O)O)CC5)C4)cc3)c2nc1-c1ccccc1 [Compound I-235, trans-4-((3-(4-(2-(2-aminopyridin-3-yl)-6-methyl-5-phenyl-3H-imidazo[4,5-b]pyridin-3-yl)phenyl)azetidin-1-yl)methyl)cyclohexane-1-carboxylic acid]	< 500	< 20000
